Test results taken from patent publication US20140199265A1, “NUTRITIONAL COMPOSITIONS CONTAINING A NEUROLOGIC COMPONENT AND USES THEREOF” (MEAD JOHNSON NUTRITION COMPANY, priority 2013, published 2014).

Tests used:
[1] = tested on: human adipose-derived stem cells (hADSCs); test: neurogenesis / neuronal differentiation of hADSCs judged by neuronal morphology under phase contrast microscopy; assay type: cell-based
Method: hADSCs were purchased from Invitrogen, also known as Life Technologies, of Carlsbad, Calif., U.S.A., and were cultured as near confluent monolayers in 100 mm culture plates within a maintenance media consisting of Complete MesenPro RS medium with growth supplement and L-glutamine obtained from Invitrogen®. The process of culturing, passage, and seeding the hADSCs is described below.
The subculture of hADSCs was performed when cell culture reached confluence. To passage hADSCs, the following procedure is used: i) aspirate the Complete MesenPRO RS medium from the cells; ii) rinse the surface area of the cell layer with Dulbecco's phosphate buffered saline (DBPS) buffer by adding the DPBS to the side of the vessel opposite the attached cell layer and rocking the vessel back and forth several times; iii) remove the DPBS by aspiration and discard; iv) detach the cells by adding a sufficient volume of pre-warmed trypsin-EDTA solution without phenol red to cover the cell layer; v) incubate at 37° C. for approximately 7 minutes; vi) observe the cells under a microscope to determine if additional incubation is needed; vii) add 3 mL of the maintenance media to the plate, mix the cell suspension, add the suspension to a 15 mL centrifuge tube and centrifuge at 210 g for 5 minutes; viii) determine the total number of cells and percent viability using a hemacytometer; ix) add Complete MesenPRO RS medium to each vessel so that the final culture volume is 0.2 mL-0.5 mL per cm^2; x) seed the cells by adding the appropriate volume of cells to each vessel and incubate at 37° C., 5% CO2 and 90% humidity; and xi) three or four days after seeding, completely remove the medium and replace with an equal volume of Complete MesenPRO RS medium.
Before seeding the passaged hADSCs on fresh culture plates, the surfaces of the culture ware are washed with sterile DPBS solution three times, followed by multiple rinses with sterile water. The first layer of coating is poly-L-ornithine. The coating is prepared by adding about 15 to about 20 μg/mL of poly-L-ornithine and incubating at 37° C. for one hour. The plate is washed three times with DPBS, 15 minutes per wash. The second layer of coating is bovine plasma fibronectin. The fibronectin is diluted in DPBS from stock to 1:1000 and 500 μL is added to each well. The plate is left at room temperature for one hour. One final wash with 500 μL per well of DPBS is performed and the plate is used immediately.
The cells were then subjected to removal and reseeded at a density of 2×10^4 cells/ml (1×10^4 cells/well) onto 24-well culture plates that contained a poly-L-ornithine and bovine plasma fibronectin coating.
Three days after seeding and priming; the culture medium was changed into neuronal differentiation medium. The culture plates were removed from the incubator and all procedures were conducted in a laminar flow hood. The culture medium was completely removed from each well. The hADSCs were then washed with sterile DPBS solution in an amount of about 1 ml per well, to remove excess culture medium. The DPBS solution was removed and replaced with neuronal differentiation medium. The formulation of the neuronal differentiation medium is such that neurogenesis would be attributed to the nutrient and not to the medium. The neuronal differentiation medium used was Neurobasal™ Medium, available from Invitrogen®, which comprises the following ingredients listed below in Table 1.
PE was added to individual wells at various concentrations in the serum-free medium. Pre-warmed serum-free medium contains Neural Basal medium with L-glutamine, 20 ng/mL of bFGF, 20 ng/mL of EGF and N2 supplement.
[…] PE in varying concentrations was tested individually and compared to the positive control, DHA, and the negative control (no treatment) under phase contrast microscopy at 24 hours, 48 hours and 96 hours. The experiments were repeated in triplicate. […]

[2] = tested on: human neuronal stem cells (hNSCs); test: neurogenesis of GFP-expressing hNSCs judged by morphological changes under inverted fluorescent microscopy; assay type: cell-based
Method: Briefly, hNSCs were purchased from Millipore, Bellerica, Mass., U.S.A., with genetic modification to constitutively express green fluorescent protein (“GFP”). The hNSCs were cultured on laminin coated plates as recommended by the manufacturer. Both laminin and DEME/F12 were obtained from Millipore. Laminin was diluted with DMEM/F12 to 20 μg/mL. 10 ml of diluted laminin solution was added to 10 cm tissue culture dish. Then the culture dish was incubated in a 37° C., 5% CO2 incubator overnight. Just before use, the laminin solution was aspirated and rinsed once with sterile DPBS solution. hNSCs were cultured in the ReNcell NSC maintenance medium (Millipore) supplied with 20 ng/mL bFGF and 20 ng/mL EGF in a 37° C., 5% CO2 incubator. Medium was exchanged with fresh medium containing bFGF and EGF every other day thereafter.
After hNSCs reach 80% confluence, hNSCs were ready for the differentiation experiment. Before seeding, a 96-well plate was freshly coated with 20 μg/mL laminin solution followed by a brief DPBS rinse as described above. Culture medium was removed carefully and hNSCs were dissociated within 3 ml Accutase (Millipore) in a 37° C., 5% CO2 incubator for 3 minutes. Then 5 ml of ReNcell NSC maintenance medium (Millipore) supplied with 20 ng/mL bFGF and 20 ng/mL EGF were added. The cell suspension was then transferred a sterile 15 ml conical tube and the cells were pelleted by the centrifugation at 300×g for 5 minutes. Supernatant was removed. 2 ml medium was then applied to the tube and hNSCs was resuspended thoroughly. The hNSCs were seeded on a 96-well plate at a density of 1×10^4 cell/ml (1000 cells/well, 100 μl/well).
After attaching to the culture surface, the culture medium was switched to serum-free differentiation medium in the presence of CDP-choline, or DHA, or no treatment. The serum-free differentiation medium was prepared freshly before the switching including 40 ml DMEM/F12 (Millipore), 400 μL-Glutamine at a concentration of 200 mM (Life Technologies, Carlsbad, Calif.), 400 μl B27 solution (Life Technologies, Carlsbad, Calif.), and 40 μl Heperin (Sigma-Aldrich, St. Louis, […].) solution at a concentration of 10 mg/mL.
The entire 96-well plate was placed under the Leica DMI4000B fluorescent microscopy, and images were taken with GFP filter under a microscope with UV light source.

[3] = CDP-choline of 404 (so in the source), after 72 hours

O=c1ccn([C@@H]2O[C@H](CO)[C@@H](O)[C@H]2O)c(=O)[nH]1 [uridine]
early neurogenesis ([1]; 20 μM, three hours after switching to neural differentiation medium, FIG. 6B): Early neurogenesis was observed
duration of neuronal morphological changes ([1]; 0.5 mM): continued up to the 48-hour time course of the culture
effect to enhance early neurogenesis ([1]; 0.5 mM): demonstrated the strongest effect to enhance early neurogenesis
length of neurite outgrowth ([2]; 20 μM): good effects of neurogenesis
neurogenesis ([2]; 20 μM, FIG. 6C): dramatically promoted neurogenesis

phosphatidylethanolamine [PE]
effect to enhance neurogenesis (neuronal morphology) ([1]; 20 μM, among 10, 20 and 40 μM tested, FIGS. 2C, 2D): demonstrated the strongest effect to enhance neurogenesis

CCCCCCCCCCCCC/C=C/[C@@H](O)[C@@H](CO)NC(=O)CCCCCCC [N-octanoyl-D-threo-sphingosine]
neurogenesis ([2]; 10 μM, FIG. 5E): dramatically promoted neurogenesis

sphingomyelin
neural differentiation ([1]; 40 μM): enhanced neural differentiation of hADSCs
extensions compared to negative control ([1]; even at low concentrations (10-40 μM tested)): longer than negative control and much more numerous

CCCCCCCCCCCCC/C=C/[C@@H](O)[C@H](CO)NC(=O)C(O)CCCCCCCCCC (stereo partly drawn) [N—(R,S)-alpha-Hydroxydodecanoyl-D-erythrosphingosine]
early neurogenesis ([1]; 40 μM, 24 hours after treating, FIG. 5B): Early neurogenesis was also, observed
effects to promote neurogenesis compared with DHA ([1]; tested at 20 and 40 μM vs DHA 10 μM, 24 hours): moderate effects to promote neurogenesis
neuronal changes in terms of morphology ([1]; tested at 20 and 40 μM, 24 hours): obvious neuronal changes in terms of morphology

lactosylceramide
neurogenesis action ([1]; 10 μM, FIG. 5D): exhibit neurogenesis action

C[N+](C)(C)CCOP(=O)(O)OP(=O)([O-])OC[C@H]1O[C@@H](n2ccc(N)nc2=O)[C@H](O)[C@@H]1O [CDP-choline, cytidine diphosphate-choline]
effect to enhance neurogenesis (neurite outgrowth, morphological changes) ([1]; 5 μM, FIG. 4C): demonstrated an effect to enhance neurogenesis
length of neurite outgrowth [2, 3]: comparable to DHA at 20 μM
neurogenesis compared to no treatment [2, 3]: dramatically promoted neurogenesis
